{"source": "patent US20260355225A1", "about": "(priority 2022, published 2026)", "test_system": "SARS-CoV-2", "assay": "Antiviral assay, inhibition of virus-induced cytopathic effect (CPE) of SARS-CoV-2 by MTT assay (Example 1)", "settings": "Severe acute respiratory syndrome coronavirus 2, Vero C1008, SARS-CoV-2, Vero E6 (CPE & MTT)", "data": [{"molecule": "O=C[C@H](O)[C@@H](O)[C@H](O)CO", "note": "[D-xylose]", "values": [{"measurement": "IC50", "setting": "administration at the same time as the virus", "result": 26.2, "unit": "mM"}, {"measurement": "IC50", "setting": "preincubation with cells 6 h before infection", "result": 95.5, "unit": "mM"}]}]}
